Blank lines part the entries; values can stand above or below the substance they belong to.
How the values were obtained:
[1] = format: physicochemical; conditions: 30 mg/mL, CLSM and fast FLIM
[2] = Droplet microstructure; format: physicochemical; conditions: CLSM and fast FLIM with SBD dye, 448 nm excitation
[3] = Encapsulation efficiency of guest fluorophores by droplets; format: physicochemical
[4] = Redox controlled droplet formation through LLPS; format: physicochemical

Substance: WCRY
- droplet microstructure before oxidation ([1]; pH 7.5 (1 M NaOH), SBD dye): forms homogeneous droplets
- droplet microstructure after oxidation by H2O2 ([1]; pH 7.5, 1 μL H2O2 (1M), 5 mins at room temperature): transform into the multiphasic droplets

Substance: WYWW
- behaviour of droplets when the fluorophores were added, pH 7.5 ([3]; pH 7.5, fluorophores added): tend to aggregates
- behaviour of droplets when the fluorophores were added, pH 9.0 ([3]; pH 9.0, fluorophores added): relatively stable

Substance: YRYY
- droplet microstructure (core-shell or homogeneous) [2]: formed homogeneous droplets

Further lines, results first:

- droplet microstructure (core-shell or homogeneous) [2]: show similar results with the R group
Substance: WGWW

- solubility in aqueous solution ([4]; aqueous solution, words only): very good solubility
- state of the droplet emulsion after adding DTT ([4]; oxidised peptide, then DTT, 5 mins at room temperature, CLSM / bright field): clear solution
- concentration at which the peptide still does not undergo LLPS ([4]; reduced (thiol) peptide, aqueous solution): 80000 µg/mL
Substance: YCGY

- droplet microstructure (core-shell or homogeneous) [2]: show similar results with the R group
Substance: YGYY
